Results as given in patent publication EP2924039A1, “2-Amino-1-phenyl-pyrrolo[3,2-b]quinoxaline-3-carboxamide derivates” (Universität Zürich, priority 2014, dated 2015).
pIC50, pKd: −log10 of the molar value.

Legend:
[1] = biological target: T1, EphA3 (Homo sapiens, UniProt P29320); assay: Differential Scanning Fluorimetry; type: binding; settings: 2 µM EphA3, compound 20µM; read-out: Delta Tm
T1 construct: A clone of EphA3 kinase domain (residues: 606-947); made in house; host or cells: Escherichia coli BL21 (DE3)
T1 sequence (P29320 606-947): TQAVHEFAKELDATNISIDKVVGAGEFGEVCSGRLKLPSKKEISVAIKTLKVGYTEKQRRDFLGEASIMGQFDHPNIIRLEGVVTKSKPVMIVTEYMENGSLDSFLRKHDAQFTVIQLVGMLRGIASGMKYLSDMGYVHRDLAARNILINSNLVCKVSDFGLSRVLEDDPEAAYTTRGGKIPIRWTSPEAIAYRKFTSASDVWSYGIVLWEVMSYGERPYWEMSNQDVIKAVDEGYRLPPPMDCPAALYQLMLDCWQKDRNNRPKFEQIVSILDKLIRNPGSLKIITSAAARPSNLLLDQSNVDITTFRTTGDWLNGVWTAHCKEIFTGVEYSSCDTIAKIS
Procedure: Cell pellets were resuspended in buffer A (50mM Tris, pH 8.0 and 100mM NaCl, supplemented with protease inhibitors) and lysed by sonication. After centrifugation at 15,000 rpm for 1 h, the soluble fraction of EphA3 was purified using […] (GE healthcare), followed by gel filtration chromatography (Superdex75; GE healthcare). The appropriate fractions were combined and concentrated to ~10 mg/mL using Amicon filter devices (10kDa as cutoff) in a storage solution (100mM sodium chloride and 10mM Tris-HCl pH 8.0, 5% glycerol). The resulting solution was aliquoted and stored at -80°C for further usage.
A final volume of 40µL was added per well in a 96 well plate and incubated at room temperature for 1 h. The plates were centrifuged for 3 min at 450 rcf. The temperature gradient was performed in the range of 25°C-75°C (50 acquisitions per degree at a ramp rate of 4.4°C/s) using a LightCycler 480 Real-Time PCR System. […] All measurements were performed in triplicate.

[2] = biological target: T2, full-length human EphB4 (Homo sapiens, UniProt P54760); assay: Cellular phosphorylation assay (sandwich ELISA, ProQinase); type: cell-based; settings: mouse embryonic fibroblast cells overexpressing EphB4, stimulated with murine ephrinB2-Fc, read-out: cell IC50
T2 construct: stably transfected to overexpress full-length human EphB4; host or cells: Mouse embryonic fibroblast cells
T2 sequence (P54760 16-987): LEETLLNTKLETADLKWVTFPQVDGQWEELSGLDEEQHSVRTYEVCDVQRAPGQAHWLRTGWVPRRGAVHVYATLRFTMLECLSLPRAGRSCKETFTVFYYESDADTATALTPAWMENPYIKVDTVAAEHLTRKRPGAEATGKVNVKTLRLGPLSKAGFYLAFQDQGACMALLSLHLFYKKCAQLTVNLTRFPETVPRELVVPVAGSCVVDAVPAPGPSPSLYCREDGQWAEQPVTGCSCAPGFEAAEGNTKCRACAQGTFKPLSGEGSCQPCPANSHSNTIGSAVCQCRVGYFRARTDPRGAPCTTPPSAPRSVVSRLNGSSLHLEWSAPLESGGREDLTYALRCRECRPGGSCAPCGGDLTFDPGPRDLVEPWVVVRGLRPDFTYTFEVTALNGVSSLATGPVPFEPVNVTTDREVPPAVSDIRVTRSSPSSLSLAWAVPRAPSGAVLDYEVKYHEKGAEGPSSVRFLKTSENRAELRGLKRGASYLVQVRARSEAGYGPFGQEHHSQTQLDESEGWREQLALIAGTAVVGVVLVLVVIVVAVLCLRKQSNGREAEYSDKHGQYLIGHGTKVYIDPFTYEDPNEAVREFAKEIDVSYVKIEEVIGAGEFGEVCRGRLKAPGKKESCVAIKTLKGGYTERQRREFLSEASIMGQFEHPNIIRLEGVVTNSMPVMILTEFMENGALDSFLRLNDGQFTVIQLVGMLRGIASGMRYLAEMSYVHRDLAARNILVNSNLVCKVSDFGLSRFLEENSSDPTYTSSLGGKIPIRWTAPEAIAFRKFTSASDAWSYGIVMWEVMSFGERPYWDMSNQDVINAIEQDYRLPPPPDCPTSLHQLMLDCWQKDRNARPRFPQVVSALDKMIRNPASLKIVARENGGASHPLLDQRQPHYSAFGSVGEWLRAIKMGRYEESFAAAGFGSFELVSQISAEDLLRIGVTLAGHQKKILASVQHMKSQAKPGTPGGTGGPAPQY
Procedure: Cellular phosphorylation assays: The cellular phosphorylation experiments were performed at ProQinase GmbH. Mouse embryonic fibroblast cells, stably transfected to overexpress full-length human EphB4, were plated at 4×10^4 cells/well in DMEM supplemented with 10% FCS in 48-well culture dishes. Medium was replaced by DMEM without FCS before test compounds prediluted in 100% DMSO were added (final DMSO concentration of 1 %). After incubation for 90 min at 37 °C, cells were stimulated for 2 h at 4 °C using murine ephrinB2-Fc at a final concentration of 2 µg/ml. Quantification of EphB4 phosphorylation was assessed in a 96-well plate via sandwich ELISA using a myc capture antibody and an antiphosphotyrosine detection antibody. Table 4: Cell IC50 (µmol/l) in cells overexpressing EphB4

[3] = biological target: T1, EphA3; assay: Surface Plasmon Resonance (SPR) determination of Kd; type: binding; settings: immobilized EphA3, 20 mM PBS pH 7.4, 150 mM NaCl
From the text: The EphA3-compound dissociation constant (Kd) in Table 2 were obtained following the experimental protocol of Jecklin M.C., et al (Journal of Molecular Recognition 22(4), 319-329), subject to the following modifications: • 1) EphA3 protein was purified as per the protocol given in the "Experimental Section" of Lafleur K., Dong J., Huang D., Caflisch A. and C. Nevado (Journal of Medicinal Chemistry, 2013; 56(1):84-96), under the header "Protein Expression and Purification". Protein concentration was determined using a NanoDrop 1000 from Thermo Scientific (Witec AG, Littau LU, Switzerland). • 2) Under "Instrumentation and reagents": 20 mM PBS pH 7.4, 150 mM NaCl was used as running buffer. • 3) Under "Enzyme immobilization": Following activation of flow cells, 300 µg/ml of EphA3 in immobilization buffer was injected over a 2 minute time period. Residual activated groups on the surface were then blocked by a 7 minute injection of 1 M ethanolamine, pH 8.5. […] Each suspension was then analyzed, commencing from the lowest and proceeding to the highest concentration, and then run in duplicate from the highest to the lowest concentration. During each binding cycle, the compound suspension was injected during a time period of 6 minutes at a flow rate of 5 µl/min and dissociation was monitored for 900 s. […]

Row | SMILES | ΔTm at 20 µM [1] | pIC50 [2] | pKd [3]
1 | NC(=O)c1c(N)n(-c2cccc(NC(=O)c3cccc(C(F)(F)F)c3)c2)c2nc3ccccc3nc12 [Compound 10d, 2-amino-1-(3-(3-(trifluoromethyl)benzamido)phenyl)-1H-pyrrolo[2,3-b]quinoxaline-3-carboxamide] | 7.6 °C | 7.70 | 7.40
2 | NC(=O)c1c(N)n(-c2cccc(C(=O)Nc3cccc(C(F)(F)F)c3)c2)c2nc3ccccc3nc12 [Compound 10c, 2-amino-1-(3-((3-(trifluoromethyl)phenyl)carbamoyl)phenyl)-1H-pyrrolo[2,3-b]quinoxaline-3-carboxamide] | 9.1 °C | 7.80 | 8.43
